These molecules were tested against T1, farnesyltransferase (Rattus norvegicus, UniProt Q02293+Q04631) (assay: Inhibition of farnesyltransferase (3H-farnesyldiphosphate / H-Ras filter assay)). Conditions: test compound at 10^−7 M; 3H-farnesyldiphosphate 0.6 μM, H-Ras 5.0 μM, 37° C., 30 minutes.
T1 construct: The enzyme can be purified according to Cell, 62: 81-88 (1990), utilizing steps one, two, and three; from tissue; host or cells: rat brain
Format: biochemical
Source text: The ability of the compounds of the present invention to inhibit farnesyltransferase can be measured according to the method described in J. Biol. Chem., 266: 14603 (1991) or J. Biol. Chem., 270:660-664 (1995). Procedures for determination of the inhibition of farnesylation of the oncogene protein Ras are described in J. Biol. Chem., 266:15575-15578 (1991) and U.S. Pat. No. 5,245,061. Inhibition of rat brain farnesyltransferase can also be measured in vitro using an Amersham Life Science commercial scintillation proximity assay kit and substituting a biotin-K Ras B fragment (0.1 μM final concentration) for the biotin-lamin substrate provided by Amersham. The enzyme can be purified according to Cell, 62: 81-88 (1990), utilizing steps one, two, and three. […] The percent inhibition of the farnesylation caused by the compounds of the present invention (at 10^−6 M) compared to an uninhibited control sample can be evaluated in the same Amersham test system.
The mixture was brought to 37° C., treated with enzyme, incubated for 30 minutes, treated with 1 M HCl/ethanol (1 mL) to stop the reaction, stirred for 15 minutes at room temperature, diluted with ethanol (2 mL), filtered through a 2.5 cm glass microfiber filter (Whatman) with ethanol rinses (4×2 mL). The glass transferred to a scintillation vial and treated with scintillation fluid (5 mL). The radioisotope retained on the glass fiber filter was counted and reflected the activity of the enzyme.

T1 sequence (Q02293 whole entry, one chain of several): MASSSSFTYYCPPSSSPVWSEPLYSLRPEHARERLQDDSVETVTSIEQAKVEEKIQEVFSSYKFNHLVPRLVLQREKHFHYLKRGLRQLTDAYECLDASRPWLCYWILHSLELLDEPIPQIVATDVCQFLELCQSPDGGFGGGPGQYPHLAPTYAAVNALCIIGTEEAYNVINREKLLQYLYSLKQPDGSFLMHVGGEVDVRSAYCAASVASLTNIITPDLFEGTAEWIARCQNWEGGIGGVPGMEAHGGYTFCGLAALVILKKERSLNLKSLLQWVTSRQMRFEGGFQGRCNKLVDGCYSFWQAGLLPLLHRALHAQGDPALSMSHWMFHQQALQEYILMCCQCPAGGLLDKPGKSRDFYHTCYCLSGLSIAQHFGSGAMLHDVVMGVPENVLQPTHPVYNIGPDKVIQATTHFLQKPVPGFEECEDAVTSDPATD

| Structure (SMILES) | inhibition at 0.1 µM |
| --- | --- |
| Cn1cncc1C(O)(C#Cc1ccc(Cl)cc1-c1cccc(Cl)c1)c1ccc(C#N)cc1 (stereo not drawn) [Example 37, 4-(3-(3′,5-dichloro(1,1′-biphenyl)-2-yl)-1-hydroxy-1-(1-methyl-1H-imidazol-5-yl)-2-propynyl)benzonitrile] | > 96% |
| CC(=O)c1ccc(-c2cc(Cl)ccc2COC(c2ccc(C#N)cc2)c2cncn2C)cc1 (stereo not drawn) [Example 16, 4-(((4′-acetyl-5-chloro(1,1′-biphenyl)-2-yl)methoxy)(1-methyl-1H-imidazol-5-yl)methyl)benzonitrile] | > 83% |
| Cn1cncc1C(OCc1ccc(Cl)cc1-c1cccc(F)c1)c1ccc(C#N)cc1 (stereo not drawn) [Example 10, 4-(((5-chloro-3′-fluoro(1,1′-biphenyl)-2-yl)methoxy)(1-methyl-1H-imidazol-5-yl)methyl)benzonitrile] | 94% |
| Cn1cncc1C(OCc1ccc(Cl)cc1-c1ccc(C=O)s1)c1ccc(C#N)cc1 (stereo not drawn) [Example 29, 4-(((4-chloro-2-(5-formyl-2-thienyl)benzyl)oxy)(1-methyl-1H-imidazol-5-yl)methyl)benzonitrile] | 92% |
| Cn1cncc1C(OCc1ccc(Cl)cc1I)c1ccc(C#N)cc1 (stereo not drawn) [Example 1, 4-(((4-chloro-2-iodobenzyl)oxy)(1-methyl-1H-imidazol-5-yl)methyl)benzonitrile] | 73% |
| CCOc1cccc(-c2cc(Cl)ccc2COC(c2ccc(C#N)cc2)c2cncn2C)c1 (stereo not drawn) [Example 19, 4-(((5-chloro-3′-ethoxy(1,1′-biphenyl)-2-yl)methoxy)(1-methyl-1H-imidazol-5-yl)methyl)benzonitrile] | > 95% |
| COc1cccc(-c2cc(Cl)ccc2COC(c2ccc(C#N)cc2)c2cncn2C)c1 (stereo not drawn) [Example 9, 4-(((5-chloro-3′-methoxy(1,1′-biphenyl)-2-yl)methoxy)(1-methyl-1H-imidazol-5-yl)methyl)benzonitrile] | > 91% |
| Cn1cncc1C(OCc1ccc(Cl)cc1-c1ccc(C(C)(C)C)cc1)c1ccc(C#N)cc1 (stereo not drawn) [Example 18, 4-(((4′-tert-butyl-5-chloro(1,1′-biphenyl)-2-yl)methoxy)(1-methyl-1H-imidazol-5-yl)methyl)benzonitrile] | 97% |
| Cn1cncc1C(OCc1ccc(Cl)cc1-c1cccc(Cl)c1Cl)c1ccc(C#N)cc1 (stereo not drawn) [Example 25, 4-((1-methyl-1H-imidazol-5-yl)((2′, 3′,5-trichloro(1,1′-biphenyl)-2-yl)methoxy)methyl)benzonitrile] | 87% |
| Cn1cncc1C(NC(=O)c1cn(C)c(=O)cc1-c1cccc(Cl)c1)c1ccc(C#N)cc1 (stereo not drawn) [Example 41, 4-(3-chlorophenyl)-N-((4-cyanophenyl)(1-methyl-1H-imidazol-5-yl)methyl)-1-methyl-6-oxo-1,6-dihydro-3-pyridinecarboxamide] | 10% |
| CCOc1cccc(-c2cc(C#N)ccc2COC(c2ccc(C#N)cc2)c2cncn2C)c1 (stereo not drawn) [Example 32, 6-(((4-cyanophenyl)(1-methyl-1H-imidazol-5-yl)methoxy)methyl)-3′-ethoxy(1,1′-biphenyl)-3-carbonitrile] | > 98% |
| COc1cc(-c2cc(Cl)ccc2COC(c2ccc(C#N)cc2)c2cncn2C)cc(OC)c1OC (stereo not drawn) [Example 24, 4-(((5-chloro-3′,4′,5′-trimethoxy(1,1′-biphenyl)-2-yl)methoxy)(1-methyl-1H-imidazol-5-yl)methyl)benzonitrile] | 94% |
| Cc1ccccc1-c1cc(Cl)ccc1COC(c1ccc(C#N)cc1)c1cncn1C (stereo not drawn) [Example 4, 4-(((5-chloro-2′-methyl(1,1′-biphenyl)-2-yl)methoxy)(1-methyl-1H-imidazol-5-yl)methyl)benzonitrile] | 89% |
| Cn1cncc1C(OCc1c(-c2cccc(Cl)c2)cc(C#N)c(=O)n1C)c1ccc(C#N)cc1F (stereo not drawn) [Example 53, 5-(3-chlorophenyl)-6-(((4-cyano-2-fluorophenyl)(1-methyl-1H-imidazol-5-yl)methoxy)methyl)-1-methyl-2-oxo-1,2-dihydro-3-pyridinecarbonitrile] | 100% |
| COc1ccc(OC)c(-c2cc(Cl)ccc2COC(c2ccc(C#N)cc2)c2cncn2C)c1 (stereo not drawn) [Example 20, 4-(((5-chloro-2′,5′-dimethoxy(1,1′-biphenyl)-2-yl)methoxy)(1-methyl-1H-imidazol-5-yl)methyl)benzonitrile] | 94% |
| Cc1ccc(S(=O)(=O)Nc2cc(C#N)ccc2COC(c2ccc(C#N)cc2)c2cncn2C)cc1 (stereo not drawn) [Example 47, N-(5-cyano-2-(((4-cyanophenyl)(1-methyl-1H-imidazol-5-yl)methoxy)methyl)phenyl)-4-methylbenzenesulfonamide] | 100% |

Same assay, conditions: test compound at 10^−8 M; 3H-farnesyldiphosphate 0.6 μM, H-Ras 5.0 μM, 37° C., 30 minutes

| Structure (SMILES) | inhibition at 0.01 µM |
| --- | --- |
| Cc1ccnc(NC(=O)c2cc(C#N)ccc2COC(c2ccc(C#N)cc2)c2cncn2C)c1 (stereo not drawn) [Example 87, 5-cyano-2-(((4-cyanophenyl)(1-methyl-1H-imidazol-5-yl)methoxy)methyl)-N-(4-methylpyridin-2-yl)benzamide] | 91% |
| COc1cccc(-c2cc(C#N)ccc2OCC(O)(c2ccc(C#N)cc2)c2cncn2C)c1 (stereo not drawn) [Example 57, 6-(2-(4-cyanophenyl)-2-hydroxy-2-(1-methyl-1H-imidazol-5-yl)ethoxy)-3′-methoxy-1,1′-biphenyl-3-carbonitrile] | 98% |
| Cn1cncc1C(F)(COc1ccc(C#N)cc1-c1cc(F)cc(F)c1)c1ccc(C#N)cc1 (stereo not drawn) [Example 68, 6-(2-(4-cyanophenyl)-2-fluoro-2-(1-methyl-1H-imidazol-5-yl)ethoxy)-3′,5′-difluoro-1,1′-biphenyl-3-carbonitrile] | 91% |
| Cn1cncc1C(O)(COc1ccc(C#N)cc1-c1cccc2ccccc12)c1ccc(C#N)cc1 (stereo not drawn) [Example 81, 4-(2-(4-cyanophenyl)-2-hydroxy-2-(1-methyl-1H-imidazol-5-yl)ethoxy)-3-(1-naphthyl)benzonitrile] | 90% |
| Cn1cncc1C(F)(COc1ccc(C#N)cc1-c1ccc2c(c1)OC(F)(F)O2)c1ccc(C#N)cc1 (stereo not drawn) [Example 80, 4-(2-(4-cyanophenyl)-2-fluoro-2-(1-methyl-1H-imidazol-5-yl)ethoxy)-3-(2,2-difluoro-1,3-benzodioxol-5-yl)benzonitrile] | 90% |
| Cn1cncc1C(F)(COc1ccc(C#N)cc1-c1cccc(F)c1)c1ccc(C#N)cc1 (stereo not drawn) [Example 76, 6-(2-(4-cyanophenyl)-2-fluoro-2-(1-methyl-1H-imidazol-5-yl)ethoxy)-3′-fluoro-1,1′-biphenyl-3-carbonitrile] | 95% |
| Cn1cncc1C(F)(COc1ccc(C#N)cc1-c1ccc(F)c(F)c1)c1ccc(C#N)cc1 (stereo not drawn) [Example 62, 6-(2-(4-cyanophenyl)-2-fluoro-2-(1-methyl-1H-imidazol-5-yl)ethoxy)-3′,4′-difluoro-1,1′-biphenyl-3-carbonitrile] | 93% |
| Cn1cncc1C(O)(COc1ccc(C#N)cc1-c1cc(F)cc(F)c1)c1ccc(C#N)cc1 (stereo not drawn) [Example 67, 6-(2-(4-cyanophenyl)-2-hydroxy-2-(1-methyl-1H-imidazol-5-yl)ethoxy)-3′,5′-difluoro-1,1′-biphenyl-3-carbonitrile] | 94% |
| CCCn1cc(-c2cc(C#N)ccc2COC(c2ccc(C#N)cc2)c2cncn2C)ccc1=O (stereo not drawn) [Example 91, 4-(((4-cyanophenyl)(1-methyl-1H-imidazol-5-yl)methoxy)methyl)-3-(6-oxo-1-propyl-1,6-dihydropyridin-3-yl)benzonitrile] | 77% |
| Cn1cncc1C(O)(COc1ccc(C#N)cc1-c1cccc(F)c1)c1ccc(C#N)cc1 (stereo not drawn) [Example 75, 6-(2-(4-cyanophenyl)-2-hydroxy-2-(1-methyl-1H-imidazol-5-yl)ethoxy)-3′-fluoro-1,1′-biphenyl-3-carbonitrile] | 96% |
| Cn1cncc1C(O)(COc1ccc(C#N)cc1-c1cccc(OC(F)(F)F)c1)c1ccc(C#N)cc1 (stereo not drawn) [Example 69, 6-(2-(4-cyanophenyl)-2-hydroxy-2-(1-methyl-1H-imidazol-5-yl)ethoxy)-3′-(trifluoromethoxy)-1,1′-biphenyl-3-carbonitrile] | 95% |
| Cn1cncc1C(F)(COc1ccc(C#N)cc1-c1ccc(Cl)c(Cl)c1)c1ccc(C#N)cc1 (stereo not drawn) [Example 72, 3′,4′-dichloro-6-(2-(4-cyanophenyl)-2-fluoro-2-(1-methyl-1H-imidazol-5-yl)ethoxy)-1,1′-biphenyl-3-carbonitrile] | 94% |

Same assay, conditions: test compound at 10^−9 M (stated in the cell); 3H-farnesyldiphosphate 0.6 μM, H-Ras 5.0 μM, 37° C., 30 minutes

| Structure (SMILES) | inhibition at 0.001 µM |
| --- | --- |
| Cn1cncc1C(O)(COc1ccc(C#N)cc1-c1ccc(F)c(Cl)c1)c1ccc(C#N)cc1 (stereo not drawn) [Example 65, 3′-chloro-6-(2-(4-cyanophenyl)-2-hydroxy-2-(1-methyl-1H-imidazol-5-yl)ethoxy)4′-fluoro-1,1′-biphenyl-3-carbonitrile] | 75% |
| Cn1cncc1C(OCc1ccc(C#N)nc1-c1ccc2c(c1)OC(F)(F)O2)c1ccc(C#N)cc1 (stereo not drawn) [Example 89, 5-(((4-cyanophenyl)(1-methyl-1H-imidazol-5-yl)methoxy)methyl)-6-(2,2-difluoro-1,3-benzodioxol-5-yl)pyridine-2-carbonitrile] | 75% |

Source: patent publication US20020115640A1, “Farnesyltransferase inhibitors” (priority 2000, published 2002)
